From patent US20230165867A1 (CHENGDU BAIYU PHARMACEUTICAL CO., LTD., priority 2020, published 2023) come the findings set out here.

Where two headings read alike, the source gives them in different places.

The target of data set [1] is T1, DNA-PK kinase (Homo sapiens, UniProt P78527).
T1 construct: purchased Promega V4107
The data set can be described thus: Inhibition assay of DNA-PK kinase (Promega kit, ADP-Glo chemiluminescence). To be noted: 50 µM ATP, 37° C., 60 min; read-out: IC50 (nM), inhibitory activity on DNA-PK kinase. The class given is biochemical. The method, then: The inhibitory activity of the compounds on DNA-PK kinase was measured by using a DNA-PK kinase assay kit (purchased from Promega, Cat.#: V4107, Lot: 0000366495). The results were quantified by chemiluminescence, and the detailed experimental protocol was as follows: • i. An ADP-fluorescence standard curve over a range of concentrations was plotted according to the kit instructions; • ii. […] The mixtures were mixed well, centrifuged (1000 rpm, 30 s), and incubated at 37° C. for 60 min; • iv. 5 µL of ADP-Glo™ Reagent was added to stop the reaction, which was then mixed well, centrifuged (1000 rpm, 30 s), and incubated at room temperature for 40 min; • v. 10 µL Kinase Detection Reagent was added, and the mixture was mixed well by shaking, centrifuged (1000 rpm, 30 s), and incubated at room temperature for 30 min; • vi. The […] was measured by using a microplate reader (Thermo fisher, Varioskan LUX).

Data set [2] can be described thus: Metabolic stability in liver microsomes. Type of data set: in vitro ADME, human. To be noted: 0.5 µM test substance, 0.5 mg/mL microsomes, NADPH and UDPGA, 37° C.; for half-life at 0.5 µM: human, human liver microsomes, read-out: T½(min), stability in human liver microsomes. Here is the method: Liver microsomes (purchased from Reed Liver Disease Research (Shanghai) Co., Ltd., product: human liver microsomes (NJT)); NADPH (purchased from Roche, Lot: 40939); UDPGA; the compounds of the present invention (test substances).
• (1) A mixed working solution of testosterone (0.5 µM) and 7-hydroxycoumarin (0.5 µM) was prepared. • (2) A mixed solution of NADPH (1 mM) and UDPGA (1 mM) was prepared, and prewarmed at 37° C. in a water bath shaker before use. • (3) Liver microsomes were thawed and diluted with a buffer. • (4) A preparation of a test substance (0.5 µM) and a solution of liver microsomes (0.5 mg/mL) were added to each well of an incubation plate. • (5) Three experimental groups were set and samples were added. Test group: the test substance was incubated with liver microsomes for 0 min, 30 min, 60 min, and 120 min in the presence of the coenzyme NADPH and UDPGA; Positive control group: testosterone (0.5 µM) and 7-hydroxycoumarin (0.5 µM) were incubated with microsomes for 0 min and 120 min in the presence of the coenzyme NADPH and UDPGA; Negative control group: the test substance was incubated with microsomes for 0 and 120 min without any coenzyme. • (6) All samples were incubated at 37° C., and pre-cooled methanol was added at each termination time (0, 15, 30, 45, 60 min, 120 min) to terminate the reaction, and the time was recorded. • (7) All samples were mixed well and centrifuged at 4000 rpm for 10 min. The supernatant was taken and measured by LC-MS/MS for the amount of the test substance remaining in the samples. Data analysis was carried out as follows: T½=0.693 /k, Clint = (0.693/T½) × (1 /(microsomal protein) × Scaling Factors), Note: k is the slope of the logarithm of the remaining amounts of compound versus time.
For orientation: Liver microsomes are vesicles of endoplasmic reticulum, rich in cytochrome P450 enzymes.

The nature of data set [3]: Pharmacokinetic assay in ICR mice (i.v. and p.o.). The note with it: mouse, plasma, male ICR mice; for half-life: read-out: T½ (converted); for bioavailability: po 10 mg/kg vs iv 1 mg/kg. The class given is in vivo. The method, then:
ICR mice were purchased from Beijing Vital River Laboratory Animal Technology Co., Ltd.
3.2 Experimental procedure • (1) Healthy male ICR mice (18-22 g) were prepared, with 18 mice for each compound. The mice were divided into 2 groups (an i.v. group and a p.o. group), with 9 mice per group. 3 mice were picked for blood collection at each time point. • (2) After the animals were fasted overnight (with free access to water), the compound of the present invention dissolved (or suspended) in a solvent of 5% DMSO and 95% 30% HP-β-CD (v:v) was administered via the tail vein (i.v., 1 mg/kg) or intragastrically (p.o., 10 mg/kg), respectively. • (3) For the i.v. group, 0.1 mL blood was collected from the submandibular vein 5 min, 15 min, 0.5 h, 1 h, 2 h, 4 h, 8 h, 12 h, and 24 h after administration, respectively, anticoagulated with EDTA-K2, and centrifuged at 4° C. for 5 min to obtain plasma, which was stored at -20° C. until testing. (4) For the p.o. group, 0.1 mL blood was collected from the submandibular vein before administration and 15 min, 0.5 h, 1 h, 2 h, 4 h, 6 h, 8 h, 12 h, and 24 h after administration, and treated in the same manner as that for the intravenous group. • (5) The concentration of the compound of the present invention in plasma was measured by LC/MS/MS. • (6) Calculation and fitting were performed with Analyst 1.6 from AB Company, and the results are shown in Table 3.

As to `Cc1cc(C#N)c(F)cc1Nc1ncc2c(n1)n(C1CCOCC1)c(=O)n2C` [Compound 8, 2-Fluoro-5-methyl-4-((7-methyl-8-oxo-9-(tetrahydro-2H-pyran-4-yl)-8,9-dihydro-7H-purin-2-yl)amino)benzonitrile], in data set [1], the IC50 (as a rule, the concentration needed to halve the response being measured) was 11.7 nM. Also, the half-life at 0.5 µM in data set [2] was > 120 min.
For `[2H]C([2H])([2H])c1cc(C(N)=O)c(F)cc1Nc1ncc2c(n1)n(C1CCOCC1)c(=O)n2C` [Compound 44, 2-Fluoro-5-(methyl-d3)-4-((7-methyl-8-oxo-9-(tetrahydro-2H-pyran-4-yl)-8,9-dihydro-7H-purin-2-yl)amino)benzamide], in data set [1], the IC50 stood at 1.1 nM. Moreover, in data set [2], the half-life at 0.5 µM is > 120 min.
Regarding `Cc1cc(C(N)=O)c(F)cc1Nc1ncc2c(n1)n(C1CCNCC1)c(=O)n2C` [Compound 81, 2-Fluoro-5-methyl-4-((7-methyl-8-oxo-9-(piperidin-4-yl)-8,9-dihydro-7H-purin-2-yl)amino)benzamide], the IC50 in data set [1] worked out at 47.1 nM. Further, the half-life at 0.5 µM in data set [2] is > 120 min.
For `Cc1cc(C(N)=O)c(F)cc1Nc1ncc2c(n1)n(C1CCCOC1)c(=O)n2C` (stereo not drawn) [Compound 69, 2-fluoro-5-methyl-4-((7-methyl-8-oxo-9-(tetrahydro-2H-pyran-3-yl)-8,9-dihydro-7H-purin-2-yl)amino)benzamide], the IC50 in data set [1] was found to be 1.25 nM. Besides, the half-life at 0.5 µM in data set [2] was > 120 min.
For the compound `COc1cc(Nc2ncc3c(n2)n(C2CCOCC2)c(=O)n3C)c(C)cc1C(N)=O` [Compound 57, 2-Methoxy-5-methyl-4-((7-methyl-8-oxo-9-(tetrahydro-2H-pyran-4-yl)-8,9-dihydro-7H-purin-2-yl)amino)benzamide], the IC50 in data set [1] amounted to 3.98 nM. Moreover, the half-life at 0.5 µM in data set [2] is > 120 min.
Consider `Cc1cc(C(N)=O)c(F)cc1Nc1ncc2c(n1)n([C@H]1CC[C@@](C)(O)CC1)c(=O)n2C` [Compound 72, 2-Fluoro-4-((9-(cis-4-hydroxy-4-methylcyclohexyl)-7-methyl-8-oxo-8,9-dihydro-7H-purin-2-yl)amino)-5-methylbenzamide], for which the half-life at 0.5 µM in data set [2] is > 120 min. Moreover, in data set [3] (iv, 1 mg/kg), the AUC – broadly, concentration integrated over time – stood at 1700 ng·h/mL and the half-life was 2.92 h. For the same compound, in data set [3], the bioavailability is 166%. Moreover, in data set [3] (po, 10 mg/kg), the AUC came out at 28200 ng·h/mL, the highest level (Cmax) was 4680 ng/mL and the half-life is 2.58 h.
For `[2H]C([2H])([2H])c1cc(C#N)ccc1Nc1ncc2c(n1)n(C1CCOCC1)c(=O)n2C` (single isomer, unassigned) [Compound 25, 3-(Methyl-d3)-4-((7-methyl-8-oxo-9-(tetrahydro-2H-pyran-4-yl)-8,9-dihydro-7H-purin-2-yl)amino)benzonitrile], the half-life at 0.5 µM in data set [2] is > 120 min.
As to `Cc1cc(C(N)=O)c(F)cc1Nc1ncc2c(n1)n(C1CCC(C)(C#N)CC1)c(=O)n2C` (single isomer, unassigned) [Compound 92-2, 4-((9-(4-cyano-4-methylcyclohexyl)-7-methyl-8-oxo-8,9-dihydro-7H-purin-2-yl)amino)-2-fluoro-5-methylbenzamide], the “T½(min), stability in human liver microsomes” value in data set [2] is listed as >120 min.
With `Cc1cc(C(N)=O)c(F)cc1Nc1ncc2c(n1)n(C1CCC(C)(C#N)CC1)c(=O)n2C` (single isomer, unassigned) [Compound 92-1, 4-((9-(4-cyano-4-methylcyclohexyl)-7-methyl-8-oxo-8,9-dihydro-7H-purin-2-yl)amino)-2-fluoro-5-methylbenzamide], the half-life at 0.5 µM in data set [2] was > 120 min.
In the case of `Cc1cc(C(N)=O)c(F)cc1Nc1ncc2c(n1)n([C@H]1CC[C@](C)(O)CC1)c(=O)n2C` [Compound 73, 2-Fluoro-4-((9-(trans-4-hydroxy-4-methylcyclohexyl)-7-methyl-8-oxo-8,9-dihydro-7H-purin-2-yl)amino)-5-methylbenzamide], in data set [2], the half-life at 0.5 µM is > 120 min. For the same compound, in data set [3] (iv, 1 mg/kg), the AUC was determined as 239 ng·h/mL and the half-life is 1.24 h. The bioavailability in data set [3] is 56%. Moreover, in data set [3] (po, 10 mg/kg), the AUC came out at 1270 ng·h/mL; the Cmax – broadly, the highest concentration seen after dosing – came out at 484 ng/mL; the half-life is 2.5 h.
